Data: patent US20080161309A1, “Novel Compounds” (priority 2004, published 2008)
Counter-ions that a name gives are not always drawn.

Assays:
[1] = Vapor sorption analysis of salts; assay type: physicochemical; details: 90% relative humidity, 25° C.; for moles water uptake per total moles of sample at 90% RH: calculated; for % mass change at 90% RH: compared to original mass of sample
Experimental: The propensity of besylate, hydrochloride, edisylate and fumarate salts of (2S)-2-[(S)-(4-chloro-2-methoxyphenoxy)(phenyl)methyl]morpholine to absorb water vapor was studied at various relative humidities (RH). The besylate, hydrochloride, and edisylate salts were analysed using a VTI Corporation SGA-100 Symmetric Vapor Sorption Analyzer equipped with a CI Electronics Limited, CI MK2, 1 Gram Microbalance, an EdgeTech MODEL 2000 […] DF DEWPOINT HYGROMETER, and an JULABO USA, Inc F25-HE Refrigerated and Heated Circulator. The following method was used:
The propensity of (2S)-2-[(S)-(4-chloro-2-methoxyphenoxy)(phenyl)methyl]morpholine […] to absorb water was similarly analyzed using a VTI Corporation SGA-100 Symmetric Vapor Sorption Analyzer equipped with a CAHN INSTRUMENTS INC, INC. D-200 Digital Recording Balance, an EdgeTech MODEL 2000 […] DF DEWPOINT HYGROMETER, and a JULABO USA, Inc F25-HD Refrigerated and Heated Circulator.

[2] = tested on: capsaicin-induced mechanical allodynia; test: Rat model of capsaicin-induced mechanical allodynia; assay type: in vivo; details: sc, male Sprague-Dawley rats, 10 mg/kg subcutaneously, PWT 1 hour after single dose, mean of eight animals, normalized for vehicle, read-out: % Inhibition of allodynia
Experimental: Compounds of the present invention may be assayed for their ability to treat fibromylagia—like pain in a rat model of capsaicin-induced mechanical allodynia (e.g., Sluka, K A, (2002) J of Neuroscience, 22(13): 5687-5693). For example, a rat model of capsaicin-induced mechanical allodynia) was be carried out as follows:
On day 0, male Sprague-Dawley rats (˜150 g) in the dark cycle were placed in suspended wire-bottom cages and allowed to acclimate for 0.5 hour in a darkened, quiet room. The day 0 paw withdrawal threshold (PWT) was determined on the left hind paw by Von Frey hair assessment using the Dixon up and down method. After assessment, the plantar muscle of the right hind paw was injected with 100 μl capsaicin (0.25% (w/v) in 10% ethanol, 10% Tween 80, in sterile saline). On day 6 the PWT of the left hindpaw (contralateral from injection site) was determined for each animal. Animals from the day 6 prereads with PWT≦11.7 g were considered allodynic responders and were regrouped so that each cage had similar mean PWT values. On day 7, responders were dosed subcutaneously with 10 mg compound/kg body weight, or with vehicle alone. The vehicle was phosphate buffered saline containing 2% Cremophor® EL (BASF). The contralateral PWT values were determined at 1 hour after the single dose, with the investigator blinded to the dosing scheme.
In addition, the day 6 PWT was subtracted from the day 0 PWT to give the baseline window of allodynia present in each animal.

[3] = target: T1, human serotonin transporter (hSERT) (Homo sapiens, UniProt P31645); test: hSERT receptor binding, [125I]-RTI-55, HEK-293 membranes; details: [125I]-RTI-55, HEK-293 membranes, Cheng-Prusoff; read-out: SERT Ki
T1 construct: expressed in transfected cells; host or cells: HEK-293, membranes
T1 sequence (P31645 whole entry): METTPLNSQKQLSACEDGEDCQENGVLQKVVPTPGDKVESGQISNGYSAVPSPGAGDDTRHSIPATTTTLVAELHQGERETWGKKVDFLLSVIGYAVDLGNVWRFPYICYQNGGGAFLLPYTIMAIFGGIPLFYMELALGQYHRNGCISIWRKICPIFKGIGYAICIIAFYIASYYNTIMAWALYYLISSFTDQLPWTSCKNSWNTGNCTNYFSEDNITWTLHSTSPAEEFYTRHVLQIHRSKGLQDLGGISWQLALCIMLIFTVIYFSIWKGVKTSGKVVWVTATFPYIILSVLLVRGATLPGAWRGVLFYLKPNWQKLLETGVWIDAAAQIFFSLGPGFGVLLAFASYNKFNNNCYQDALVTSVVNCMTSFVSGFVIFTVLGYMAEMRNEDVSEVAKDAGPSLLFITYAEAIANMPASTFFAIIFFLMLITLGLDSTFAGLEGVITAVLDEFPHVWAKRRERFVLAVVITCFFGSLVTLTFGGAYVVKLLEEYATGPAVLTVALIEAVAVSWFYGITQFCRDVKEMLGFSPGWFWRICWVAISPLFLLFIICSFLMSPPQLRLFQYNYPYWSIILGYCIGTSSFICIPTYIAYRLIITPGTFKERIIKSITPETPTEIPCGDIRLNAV
Experimental: Cell pastes of HEK-293 cells transfected with a human serotonin transporter cDNA were prepared. […] Aliquots of membranes (−2.5 mg/ml protein) were stored in liquid nitrogen until used.
The reaction was incubated and gently agitated for 90 minutes at room temperature, and terminated by removal of assay volume. […] Test compounds were run in duplicate, and specific binding was defined as the difference between binding in the presence and absence of 10 μM citalopram. Excel and GraphPad Prism software were used for data calculation and analysis. IC50 values were converted to Ki values using the Cheng-Prusoff equation.

[4] = target: T2, human norepinephrine transporter (hNET) (Homo sapiens, UniProt P23975); test: hNET receptor binding, [125I]-RTI-55, HEK-293 membranes; details: Cheng-Prusoff, read-out: NET Ki
T2 construct: expressed in transfected cells; host or cells: HEK-293, membranes
T2 sequence (P23975 whole entry): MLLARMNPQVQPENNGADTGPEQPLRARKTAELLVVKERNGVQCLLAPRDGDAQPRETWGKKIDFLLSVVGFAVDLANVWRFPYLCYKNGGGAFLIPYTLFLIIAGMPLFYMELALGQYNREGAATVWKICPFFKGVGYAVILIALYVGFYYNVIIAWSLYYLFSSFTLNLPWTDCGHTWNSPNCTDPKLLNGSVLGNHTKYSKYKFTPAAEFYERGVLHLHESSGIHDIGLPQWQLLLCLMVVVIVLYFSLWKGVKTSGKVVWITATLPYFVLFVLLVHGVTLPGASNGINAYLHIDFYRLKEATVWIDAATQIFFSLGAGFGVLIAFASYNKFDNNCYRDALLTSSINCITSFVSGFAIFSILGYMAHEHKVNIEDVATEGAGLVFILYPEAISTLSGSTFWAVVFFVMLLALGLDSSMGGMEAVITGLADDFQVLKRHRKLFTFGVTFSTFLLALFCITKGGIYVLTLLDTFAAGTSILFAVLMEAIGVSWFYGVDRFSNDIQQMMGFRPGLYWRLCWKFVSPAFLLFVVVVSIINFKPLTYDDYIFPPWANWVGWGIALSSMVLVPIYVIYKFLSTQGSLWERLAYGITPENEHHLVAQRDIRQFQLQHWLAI
Experimental: Cell pastes of HEK-293 cells transfected with a human norepinephrine transporter cDNA were prepared. The cell pastes were resuspended in 400 to 700 ml of Krebs-HEPES assay buffer (25 mM HEPES, 122 mM NaCl, 3 mM KCl, 1.2 mM MgSO4, 1.3 mM CaCl2, and 11 mM glucose, pH 7.4) with a Polytron homogenizer at setting 7 for 30 seconds. Aliquots of membranes (5 mg/ml protein) were stored in liquid nitrogen until used.
The binding assay was set up in Beckman deep-well polypropylene plates with a total volume of 250 μl containing: drug (10^−5M to 10^−12M), cell membranes, and […] [^125I]-RTI-55 (Perkin Elmer, NEX-272; specific activity 2200 Ci/mmol). The reaction was incubated by gentle agitation for 90 minutes at room temperature and was terminated by filtration through Whatman GF/C filter plates using a Brandel 96-well plate harvester. Scintillation fluid (100 μl) was added to each well, and bound [^125I]-RTI-55 was determined using a Wallac Trilux Beta Plate Counter. Test compounds were run in duplicate, and specific binding was defined as the difference between binding in the presence and absence of 10 μM desipramine.
Excel and GraphPad Prism software were used for data calculation and analysis. IC50 values were converted to Ki values using the Cheng-Prusoff equation. The Ki values (nM) for the hNET are reported below in Table 1.

melting point [°C]	Ki [3] [µM]	Ki [4] [µM]	Compound	inhibition in vivo at 10 mg/kg [2] [%]	further results
98.24			c1ccc(C(Oc2cccc3cccnc23)C2CNCCO2)cc1 (centres unmarked) (as salt: succinate) [Example 9]		
			(2S)-2-[(S)-(4-chloro-2-methoxyphenoxy)(phenyl)methyl]morpholine edisylate		moles water uptake per total moles of sample at 90% RH [1]: 1.32; % mass change at 90% RH [1]: 4.6%
			COc1cc(Cl)ccc1O[C@@H](c1ccccc1)[C@@H]1CNCCO1.O=C(O)/C=C/C(=O)O [fumaric, (2S)-2-[(1S)-(4-chloro-2-methoxyphenoxy) (phenyl)methyl]morpholine fumarate]		moles water uptake per total moles of sample at 90% RH [1]: 0.69; % mass change at 90% RH [1]: 2.8%
119.29			FC(F)Oc1cc(Cl)ccc1OC(c1ccccc1)C1CNCCO1 (centres unmarked) (as salt: citrate) [Example 4]		
			COc1cc(Cl)ccc1O[C@@H](c1ccccc1)[C@@H]1CNCCO1.O=S(=O)(O)c1ccccc1 [besylate, (2S)-2-[(S)-(4-chloro-2-methoxyphenoxy)(phenyl)methyl]morpholine besylate]		moles water uptake per total moles of sample at 90% RH [1]: 0.17; % mass change at 90% RH [1]: 0.64%
189.23			Fc1c(Cl)cccc1OC(c1ccccc1)C1CNCCO1 (centres unmarked) (as salt: edisylate) [Example 8]		
92.68			Fc1cc(Cl)ccc1OC(c1ccccc1)C1CNCCO1 (centres unmarked) (as salt: tartrate) [Example 5]		
119.96			Fc1cccc(OC(c2ccccc2)C2CNCCO2)c1F (centres unmarked) (as salt: fumarate) [Example 6]		
	0.0522	0.0131	Fc1cccc([C@H](Oc2ccc(F)cc2Cl)[C@@H]2CNCCO2)c1 [Example 37, (2S)-2-[(1S)-(2-chloro-4-fluorophenoxy)-(3-fluorophenyl)methyl]morpholine hydrochloride]	80.3	
	0.184	0.018	Cc1ccc(Cl)c(O[C@@H](c2ccccc2)[C@@H]2CNCCO2)c1 [Example 87, (2S)-2-[(1S)-(2-Chloro-5-methylphenoxy)phenylmethyl] morpholine fumarate]	9.3	
162.03			COc1cc(Cl)ccc1OC(c1cccc(F)c1)C1CNCCO1 (centres unmarked) (as salt: camsylate) [Example 3]		
			COc1cc(Cl)ccc1O[C@@H](c1ccccc1)[C@@H]1CNCCO1.Cl [Example 38, (2S)-2-[(1S)-(4-chloro-2-methoxyphenoxy) (phenyl)methyl] morpholine hydrochloride]	59	moles water uptake per total moles of sample at 90% RH [1]: 0.77; % mass change at 90% RH [1]: 3.8%
148.11			COc1cc(Cl)ccc1OC(c1ccc(F)cc1)C1CNCCO1 (centres unmarked) (as salt: hydrochloride) [Example 2]		
	0.222	0.0151	COc1cc(F)ccc1O[C@@H](c1cccc(F)c1)[C@@H]1CNCCO1 [Example 46, (2S)-2-[(1S)-(4-Fluoro-2-methoxyphenoxy)(3-fluorophenyl)methyl] morpholine hydrochloride]	46.1	
	0.222	0.0483	Fc1ccc(O[C@@H](c2cccc(Cl)c2)[C@@H]2CNCCO2)c(Cl)c1 [Example 102, (2S)-2-[(1S)-(2-Chloro-4-fluorophenoxy) (3-chlorophenyl)methyl] morpholine fumarate]	59.5	
	0.111	0.0119	COc1cccc([C@H](Oc2ccc(F)cc2Br)[C@@H]2CNCCO2)c1 [Example 70, (2S)-2-[(1S)-(2-Bromo-4-fluorophenoxy) (3-methoxyphenyl)methyl] morpholine hydrochloride]	27.3	
	0.153	0.0153	COc1cccc([C@H](Oc2ccc(C)cc2OC)[C@@H]2CNCCO2)c1 [Example 62, (2S)-2-[(1S)-(2-Methoxy-4-methylphenoxy) (3-methoxyphenyl)methyl] morpholine hydrochloride]	40.5	
106.48			Fc1ccc(OC(c2ccccc2)C2CNCCO2)c(F)c1 (centres unmarked) (as salt: hydrobromid) [Example 7]		
